In ChEMBL document CHEMBL4800722, “Data for DCP probe BI 605906” (2021):

Experiments:
[1] = target: Cyclin-G-associated kinase (Homo sapiens, UniProt O14976); test: Dose response measurement (GAK)
[2] = target: Activin receptor type-1-like (Homo sapiens) (UniProt P37023); test: ACVRL1 (ALK1) Invitrogen Lab (UK) kinase screen (BI); settings: Compound concentration 1.0 uM
[3] = target: AMP-activated protein kinase alpha-2/beta-2/gamma-2 (Homo sapiens) (UniProt P54646+O43741+Q9UGJ0); test: AMPK (A2/B2/G2) Invitrogen Lab (UK) kinase screen (BI); type: protein-complex assay; settings: Compound concentration 1.0 uM
[4] = target: Bone morphogenetic protein receptor type-2 (Homo sapiens) (UniProt Q13873); test: BMPR2 Invitrogen Lab (UK) kinase screen (BI); settings: Compound concentration 1.0 uM
[5] = target: Serine/threonine-protein kinase TAO1 (Homo sapiens) (UniProt Q7L7X3); test: TAOK1 Invitrogen Lab (UK) kinase screen (BI); settings: Compound concentration 1.0 uM
[6] = target: Cytoplasmic tyrosine-protein kinase BMX (Homo sapiens) (UniProt P51813); test: BMX Invitrogen Lab (UK) kinase screen (BI); settings: Compound concentration 1.0 uM
[7] = target: Dual specificity protein kinase CLK3 (Homo sapiens) (UniProt P49761); test: CLK3 Invitrogen Lab (UK) kinase screen (BI); settings: Compound concentration 1.0 uM
[8] = target: Serine/threonine-protein kinase haspin (Homo sapiens) (UniProt Q8TF76); test: GSG2 Invitrogen Lab (UK) kinase screen (BI); settings: Compound concentration 1.0 uM
[9] = target: Homeodomain-interacting protein kinase 2 (Homo sapiens) (UniProt Q9H2X6); test: HIPK2 Invitrogen Lab (UK) kinase screen (BI); settings: Compound concentration 1.0 uM
[10] = target: NUAK family SNF1-like kinase 1 (Homo sapiens) (UniProt O60285); test: NUAK1 Invitrogen Lab (UK) kinase screen (BI); settings: Compound concentration 1.0 uM
[11] = target: SRSF protein kinase 2 (Homo sapiens) (UniProt P78362); test: SRPK2 Invitrogen Lab (UK) kinase screen (BI); settings: Compound concentration 1.0 uM
[12] = target: T1, Serine/threonine-protein kinase Chk1 (Homo sapiens) (UniProt O14757); test: CHK1 DUNDEE kinase screen (BI); settings: Compound concentration 10.0 uM
T1 sequence (whole entry): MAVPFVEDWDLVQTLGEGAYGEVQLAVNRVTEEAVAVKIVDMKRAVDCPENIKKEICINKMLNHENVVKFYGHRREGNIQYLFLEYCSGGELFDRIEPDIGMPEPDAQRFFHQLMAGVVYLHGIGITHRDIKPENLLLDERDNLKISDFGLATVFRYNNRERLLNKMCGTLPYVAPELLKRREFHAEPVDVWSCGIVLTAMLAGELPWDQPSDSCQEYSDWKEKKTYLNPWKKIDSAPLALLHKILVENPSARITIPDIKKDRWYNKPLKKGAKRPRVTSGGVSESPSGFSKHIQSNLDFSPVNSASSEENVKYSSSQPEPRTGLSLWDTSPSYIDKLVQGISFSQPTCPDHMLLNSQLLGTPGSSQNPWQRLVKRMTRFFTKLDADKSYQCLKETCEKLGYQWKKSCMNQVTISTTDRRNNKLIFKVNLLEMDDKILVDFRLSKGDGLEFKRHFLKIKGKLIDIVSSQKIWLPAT

[13] = target: Casein kinase 2 (Homo sapiens) (UniProt P67870+P68400+P19784+Q8NEV1); test: CK2 DUNDEE kinase screen (BI); type: protein assay; settings: Compound concentration 10.0 uM
[14] = target: 5-hydroxytryptamine receptor 2C (Homo sapiens) (UniProt P28335); settings: Compound concentration 10.0 uM
[15] = target: Delta-type opioid receptor (Homo sapiens) (UniProt P41143); settings: Compound concentration 10.0 uM
[16] = target: GABA-A receptor; anion channel (Rattus norvegicus) (UniProt O09028+P15431+P18506+P18508+P19969+P20236+P23574+P23576+P28471+P28473+P30191+P62813+P63079+P63138+Q91ZM7+Q9ES14); settings: Compound concentration 10.0 uM
[17] = target: Serotonin 2 (5-HT2) receptor (Rattus norvegicus) (UniProt P30994+P08909+P14842)
Sequence of Serotonin 2 (5-HT2) receptor (Rattus norvegicus) (P08909 whole entry, looked up): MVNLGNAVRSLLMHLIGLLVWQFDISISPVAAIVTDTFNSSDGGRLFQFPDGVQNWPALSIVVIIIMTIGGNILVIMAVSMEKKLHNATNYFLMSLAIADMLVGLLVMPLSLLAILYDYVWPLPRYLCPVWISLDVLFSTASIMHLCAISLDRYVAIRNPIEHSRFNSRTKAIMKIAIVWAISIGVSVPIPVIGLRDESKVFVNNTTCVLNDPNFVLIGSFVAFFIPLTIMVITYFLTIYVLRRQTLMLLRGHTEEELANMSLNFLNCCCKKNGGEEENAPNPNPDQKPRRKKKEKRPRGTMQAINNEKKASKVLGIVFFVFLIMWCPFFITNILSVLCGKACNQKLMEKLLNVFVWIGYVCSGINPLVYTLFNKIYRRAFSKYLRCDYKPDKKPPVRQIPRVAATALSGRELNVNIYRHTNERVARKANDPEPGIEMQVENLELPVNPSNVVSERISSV
Sequence of Serotonin 2 (5-HT2) receptor (Rattus norvegicus) (P14842 whole entry, looked up): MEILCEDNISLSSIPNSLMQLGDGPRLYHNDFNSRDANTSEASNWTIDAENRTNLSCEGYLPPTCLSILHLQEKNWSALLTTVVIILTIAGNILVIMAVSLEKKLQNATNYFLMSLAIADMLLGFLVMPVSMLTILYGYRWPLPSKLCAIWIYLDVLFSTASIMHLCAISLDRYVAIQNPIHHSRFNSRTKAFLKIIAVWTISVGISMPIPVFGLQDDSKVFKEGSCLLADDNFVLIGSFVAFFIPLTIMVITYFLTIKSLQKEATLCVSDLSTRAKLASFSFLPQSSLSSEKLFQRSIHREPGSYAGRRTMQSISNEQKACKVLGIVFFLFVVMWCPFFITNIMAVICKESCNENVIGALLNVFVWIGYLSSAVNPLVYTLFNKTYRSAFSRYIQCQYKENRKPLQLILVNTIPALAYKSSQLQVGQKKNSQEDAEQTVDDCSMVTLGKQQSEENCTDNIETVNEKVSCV
Sequence of Serotonin 2 (5-HT2) receptor (Rattus norvegicus) (P30994 whole entry, looked up): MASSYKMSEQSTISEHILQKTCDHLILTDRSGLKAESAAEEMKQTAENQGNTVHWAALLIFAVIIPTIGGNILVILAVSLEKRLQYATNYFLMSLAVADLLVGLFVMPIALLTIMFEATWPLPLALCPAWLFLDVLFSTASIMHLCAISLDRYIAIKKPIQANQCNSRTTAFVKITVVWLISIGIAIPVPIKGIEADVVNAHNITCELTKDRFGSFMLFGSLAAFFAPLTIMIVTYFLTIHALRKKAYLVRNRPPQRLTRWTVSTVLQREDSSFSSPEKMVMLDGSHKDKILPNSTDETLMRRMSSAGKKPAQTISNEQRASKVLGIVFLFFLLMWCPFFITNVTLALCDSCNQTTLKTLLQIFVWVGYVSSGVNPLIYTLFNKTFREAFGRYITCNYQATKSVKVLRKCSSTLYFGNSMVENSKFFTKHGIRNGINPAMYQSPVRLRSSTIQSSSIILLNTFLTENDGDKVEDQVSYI

[18] = target: D(1A) dopamine receptor (Homo sapiens) (UniProt P21728); settings: Compound concentration 10.0 uM
[19] = target: AMP-activated protein kinase alpha-1/beta-2/gamma-3 (Homo sapiens) (UniProt O43741+Q13131+Q9UGI9); settings: Compound concentration 1.0 uM
[20] = target: CDK18/Cyclin Y (Homo sapiens) (UniProt Q07002+Q8ND76); settings: Compound concentration 1.0 uM
[21] = target: Serine/threonine-protein kinase SIK1 (Homo sapiens) (UniProt P57059); settings: Compound concentration 1.0 uM
[22] = target: Non-receptor tyrosine-protein kinase TNK1 (Homo sapiens) (UniProt Q13470); settings: Compound concentration 1.0 uM
[23] = target: Serine/threonine-protein kinase ULK2 (Homo sapiens) (UniProt Q8IYT8); settings: Compound concentration 1.0 uM
[24] = target: Tyrosine-protein kinase Fes/Fps (Homo sapiens) (UniProt P07332); settings: Compound concentration 1.0 uM
[25] = target: Tyrosine-protein kinase Fyn (Homo sapiens) (UniProt P06241); settings: Compound concentration 1.0 uM
[26] = target: G protein-coupled receptor kinase 6 (Homo sapiens) (UniProt P43250); settings: Compound concentration 1.0 uM
[27] = target: Glycogen synthase kinase-3 beta (Homo sapiens) (UniProt P49841)
Sequence of Glycogen synthase kinase-3 beta (Homo sapiens) (P49841 whole entry, looked up): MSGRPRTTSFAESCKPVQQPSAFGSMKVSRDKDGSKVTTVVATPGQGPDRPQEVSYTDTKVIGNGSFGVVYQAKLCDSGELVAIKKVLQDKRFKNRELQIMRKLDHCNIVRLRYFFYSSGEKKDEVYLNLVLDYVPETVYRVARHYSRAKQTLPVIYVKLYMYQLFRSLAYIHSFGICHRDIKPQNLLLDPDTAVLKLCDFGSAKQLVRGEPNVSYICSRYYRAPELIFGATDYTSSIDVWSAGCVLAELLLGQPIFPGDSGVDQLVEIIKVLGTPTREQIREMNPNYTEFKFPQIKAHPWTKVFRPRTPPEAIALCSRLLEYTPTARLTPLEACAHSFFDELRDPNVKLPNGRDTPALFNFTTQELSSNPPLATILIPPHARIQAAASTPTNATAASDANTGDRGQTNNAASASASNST

[28] = target: Tyrosine-protein kinase Lyn (Homo sapiens) (UniProt P07948); settings: Compound concentration 1.0 uM
Sequence of Tyrosine-protein kinase Lyn (Homo sapiens) (P07948 2-512 limits assumed): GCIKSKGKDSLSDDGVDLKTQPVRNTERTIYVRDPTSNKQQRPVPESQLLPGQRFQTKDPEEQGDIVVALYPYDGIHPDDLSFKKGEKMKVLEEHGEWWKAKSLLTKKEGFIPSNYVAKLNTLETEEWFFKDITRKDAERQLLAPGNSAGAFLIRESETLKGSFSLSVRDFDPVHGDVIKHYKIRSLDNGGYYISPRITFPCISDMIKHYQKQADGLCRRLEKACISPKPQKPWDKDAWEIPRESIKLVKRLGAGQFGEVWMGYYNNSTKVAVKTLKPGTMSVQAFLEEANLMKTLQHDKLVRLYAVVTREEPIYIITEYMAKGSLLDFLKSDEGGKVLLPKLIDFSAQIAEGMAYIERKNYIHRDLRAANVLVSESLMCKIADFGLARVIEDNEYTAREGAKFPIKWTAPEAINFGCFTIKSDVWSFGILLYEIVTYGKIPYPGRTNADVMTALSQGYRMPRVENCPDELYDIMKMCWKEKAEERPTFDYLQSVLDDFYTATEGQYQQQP

[29] = target: MAP/microtubule affinity-regulating kinase 4 (Homo sapiens) (UniProt Q96L34); settings: Compound concentration 1.0 uM
[30] = target: Tyrosine-protein kinase Mer (Homo sapiens) (UniProt Q12866); settings: Compound concentration 1.0 uM
[31] = target: Macrophage-stimulating protein receptor (Homo sapiens) (UniProt Q04912); settings: Compound concentration 1.0 uM
[32] = target: Serine/threonine-protein kinase Nek6 (Homo sapiens) (UniProt Q9HC98); settings: Compound concentration 1.0 uM
[33] = target: Tyrosine-protein kinase SYK (Homo sapiens) (UniProt P43405)
[34] = target: Angiopoietin-1 receptor (Homo sapiens) (UniProt Q02763)
Sequence of Angiopoietin-1 receptor (Homo sapiens) (Q02763 whole entry): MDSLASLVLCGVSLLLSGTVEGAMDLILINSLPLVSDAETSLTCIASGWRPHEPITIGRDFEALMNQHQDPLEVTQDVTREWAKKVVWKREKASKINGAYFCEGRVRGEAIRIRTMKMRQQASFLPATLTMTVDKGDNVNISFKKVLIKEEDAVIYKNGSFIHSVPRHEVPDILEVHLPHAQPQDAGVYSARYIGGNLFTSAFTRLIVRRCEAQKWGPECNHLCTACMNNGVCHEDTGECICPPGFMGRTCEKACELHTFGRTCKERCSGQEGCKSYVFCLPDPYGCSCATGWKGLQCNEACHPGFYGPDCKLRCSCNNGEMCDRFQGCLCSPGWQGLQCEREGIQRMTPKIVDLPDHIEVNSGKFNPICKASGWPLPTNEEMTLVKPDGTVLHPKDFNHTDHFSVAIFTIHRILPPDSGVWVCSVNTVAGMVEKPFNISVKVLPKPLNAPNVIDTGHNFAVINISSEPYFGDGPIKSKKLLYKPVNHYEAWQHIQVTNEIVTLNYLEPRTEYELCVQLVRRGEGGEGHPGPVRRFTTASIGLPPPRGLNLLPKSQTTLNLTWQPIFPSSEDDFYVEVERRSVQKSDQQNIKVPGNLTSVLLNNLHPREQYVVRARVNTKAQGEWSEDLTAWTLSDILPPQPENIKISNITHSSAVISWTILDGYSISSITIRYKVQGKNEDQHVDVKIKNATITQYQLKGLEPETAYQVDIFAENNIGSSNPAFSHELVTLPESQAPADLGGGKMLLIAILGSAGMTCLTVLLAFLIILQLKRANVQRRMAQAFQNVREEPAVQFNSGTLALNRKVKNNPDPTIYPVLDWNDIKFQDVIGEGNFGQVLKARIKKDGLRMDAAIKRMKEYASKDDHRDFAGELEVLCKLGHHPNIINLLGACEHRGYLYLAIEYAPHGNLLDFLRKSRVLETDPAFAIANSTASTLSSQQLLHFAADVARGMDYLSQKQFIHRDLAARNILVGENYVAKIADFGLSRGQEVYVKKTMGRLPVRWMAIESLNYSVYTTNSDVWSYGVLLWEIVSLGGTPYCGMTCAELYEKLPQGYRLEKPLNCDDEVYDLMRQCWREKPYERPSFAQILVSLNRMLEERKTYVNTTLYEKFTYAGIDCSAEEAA

[35] = target: Phosphatidylinositol 4-kinase type 2-beta (Homo sapiens) (UniProt Q8TCG2); test: PI4K2B Invitrogen Lab (UK) kinase screen (BI); settings: Compound concentration 1.0 uM

Sequence of Cyclin-G-associated kinase (O14976 whole entry): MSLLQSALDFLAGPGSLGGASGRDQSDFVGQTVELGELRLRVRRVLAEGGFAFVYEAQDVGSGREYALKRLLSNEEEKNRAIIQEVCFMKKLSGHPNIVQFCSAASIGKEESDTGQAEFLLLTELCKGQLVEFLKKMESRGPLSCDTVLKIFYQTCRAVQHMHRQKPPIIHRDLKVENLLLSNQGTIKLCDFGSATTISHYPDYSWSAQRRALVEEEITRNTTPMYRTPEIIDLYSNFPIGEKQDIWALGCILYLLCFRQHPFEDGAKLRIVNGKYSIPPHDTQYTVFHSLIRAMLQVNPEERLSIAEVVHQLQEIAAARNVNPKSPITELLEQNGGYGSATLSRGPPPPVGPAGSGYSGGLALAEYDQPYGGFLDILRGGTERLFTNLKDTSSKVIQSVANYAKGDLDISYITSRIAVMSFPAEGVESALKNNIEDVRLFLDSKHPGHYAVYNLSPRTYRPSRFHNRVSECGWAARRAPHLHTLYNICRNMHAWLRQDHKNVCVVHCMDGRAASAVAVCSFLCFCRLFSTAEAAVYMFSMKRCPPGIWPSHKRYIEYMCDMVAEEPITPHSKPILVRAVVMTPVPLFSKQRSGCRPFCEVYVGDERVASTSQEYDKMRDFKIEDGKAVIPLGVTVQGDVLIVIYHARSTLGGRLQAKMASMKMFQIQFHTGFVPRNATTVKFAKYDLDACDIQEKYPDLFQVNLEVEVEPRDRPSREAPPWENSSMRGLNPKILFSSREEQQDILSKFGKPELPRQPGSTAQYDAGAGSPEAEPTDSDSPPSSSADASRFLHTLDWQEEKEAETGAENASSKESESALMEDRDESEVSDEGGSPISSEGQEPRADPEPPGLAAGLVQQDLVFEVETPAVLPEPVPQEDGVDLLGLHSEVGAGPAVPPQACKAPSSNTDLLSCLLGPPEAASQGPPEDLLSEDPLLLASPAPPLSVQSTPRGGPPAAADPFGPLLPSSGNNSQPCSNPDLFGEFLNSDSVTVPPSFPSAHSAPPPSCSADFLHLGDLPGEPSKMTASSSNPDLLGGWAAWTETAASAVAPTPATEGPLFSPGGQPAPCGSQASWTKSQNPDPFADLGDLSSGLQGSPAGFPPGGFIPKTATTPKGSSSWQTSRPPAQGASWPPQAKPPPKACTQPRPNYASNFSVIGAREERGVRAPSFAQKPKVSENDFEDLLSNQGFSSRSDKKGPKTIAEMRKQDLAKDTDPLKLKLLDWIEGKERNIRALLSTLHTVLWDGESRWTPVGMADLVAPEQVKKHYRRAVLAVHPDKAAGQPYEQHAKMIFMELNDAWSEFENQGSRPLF

Question: For `CCC(F)(F)c1cc(N2CCC(S(C)(=O)=O)CC2)nc2sc(C(N)=O)c(N)c12` [BI-605906], which IC50 [1] is on record?
Answer: 0.188 µM

Question: What about the residual activity [2] of the same compound?
Answer: 64%

Question: And the residual activity [3]?
Answer: 88%

Question: And the residual activity [4]?
Answer: 65%

Question: What about the residual activity [5] of the same compound?
Answer: 88%

Question: What about the residual activity [6] of the same compound?
Answer: 88%

Question: What about the residual activity [7] of the same compound?
Answer: 102%

Question: What about the residual activity [8] of the same compound?
Answer: 70%

Question: What about the residual activity [9] of the same compound?
Answer: 81%

Question: What about the residual activity [10] of the same compound?
Answer: 84%

Question: What about the residual activity [11] of the same compound?
Answer: 103%

Question: And the residual activity [12]?
Answer: 90.2%

Question: What about the residual activity [13] of the same compound?
Answer: 89.4%

Question: What about the inhibition [14] of the same compound?
Answer: -5.41%

Question: What about the inhibition [15] of the same compound?
Answer: 3.97%

Question: And the inhibition [16]?
Answer: 32.6%

Question: And the residual activity ([17]; Compound concentration 10.0 uM)?
Answer: 97%

Question: And the residual activity ([17]; Compound concentration 100.0 uM)?
Answer: 95%

Question: And the residual activity [18]?
Answer: 101%

Question: What about the residual activity [19] of the same compound?
Answer: 91%

Question: What about the residual activity [20] of the same compound?
Answer: 96%

Question: And the residual activity [21]?
Answer: 92%

Question: What about the residual activity [22] of the same compound?
Answer: 92%

Question: What about the residual activity [23] of the same compound?
Answer: 93%

Question: And the residual activity [24]?
Answer: 91%

Question: What about the residual activity [25] of the same compound?
Answer: 89%

Question: What about the residual activity [26] of the same compound?
Answer: 93%

Question: What about the residual activity ([27]; Compound concentration 1.0 uM) of the same compound?
Answer: 93%

Question: What about the residual activity ([27]; Compound concentration 10.0 uM) of the same compound?
Answer: 87%

Question: What about the residual activity [28] of the same compound?
Answer: 82%

Question: And the residual activity [29]?
Answer: 100%

Question: And the residual activity [30]?
Answer: 93%

Question: What about the residual activity [31] of the same compound?
Answer: 105%

Question: And the residual activity [32]?
Answer: 95%

Question: And the residual activity ([33]; Compound concentration 1.0 uM)?
Answer: 94%

Question: And the residual activity ([33]; Compound concentration 10.0 uM)?
Answer: 97%

Question: And the residual activity ([34]; Compound concentration 1.0 uM)?
Answer: 93%

Question: And the residual activity ([34]; Compound concentration 10.0 uM)?
Answer: 82%

Question: What about the residual activity [35] of the same compound?
Answer: 102%
